From patent US20150299188A1, “HETEROCYCLIC COMPOUND” (priority 2012, published 2015) come the findings set out here.

Structures are written as SMILES.

For this experiment, the system named is FLAP (5-lipoxygenase activating protein). Put plainly: In vitro binding test: displacement of [3H]-7-chloro-3-(5-((3-fluoropyridin-2-yl)methoxy)-2-methylphenyl)-3,4-dihydroquinazolin-2(1H)-one from Sf9 microsome fractions. Further details: species or system human and mouse. Particulars: Sf9 microsome fractions expressing FLAP; 100% = radioligand binding with 10 μM sodium 3-(3-(tert-butylsulfanyl)-1-(4-chlorobenzyl)-5-isopropyl-1H-indol-2-yl)-2,2-dimethylpropanoate, 0% = DMSO; test compound concentration not given. The procedure, abridged: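 Sf9 microsomes expressing human or mouse FLAP (2 μg/mL) preincubated with compound 10 min at room temperature, then 120 nM tritiated quinazolinone ligand added for 60 min; buffer 100 mM Tris-HCl pH 7.5 with NaCl, EDTA, DTT, glycerol, Tween20. Bound ligand filtered and counted by scintillation; 10 μM indole propanoate defines 100% inhibition, DMSO 0%.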
On the technique in general: Displacement assays read how much labelled ligand stays bound in the presence of the test substance.
Turning to `COCCOc1ccc2c(=O)n(-c3cc(OCc4ncccc4F)ccc3C)c(=O)[nH]c2c1` [Example 356, 3-(5-((3-fluoropyridin-2-yl)methoxy)-2-methylphenyl)-7-(2-methoxyethoxy)quinazoline-2,4(1H,3H)-dione], the “inhibitory rate (%)” value amounted to 102%.

In the case of `O=c1[nH]c2ccccc2c(=O)n1-c1cc2c(cc1Cl)CCC(c1ncccc1F)O2` (stereo not drawn) [Example 372, 3-(6-chloro-2-(3-fluoropyridin-2-yl)-3,4-dihydro-2H-chromen-7-yl)quinazoline-2,4(1H,3H)-dione], the “inhibitory rate (%)” value was found to be 95%.

Turning to `N#Cc1ncc(Cl)c2c1NC(=O)N(c1cc3c(cc1Cl)CCC(c1ncccc1F)O3)C2` (stereo not drawn) [Example 157, 5-chloro-3-(6-chloro-2-(3-fluoropyridin-2-yl)-3,4-dihydro-2H-chromen-7-yl)-2-oxo-1,2,3,4-tetrahydropyrido[3,4-d]pyrimidine-8-carbonitrile], the “inhibitory rate (%)” value came out at 104%.

`Cc1cc2c(cc1-n1c(=O)[nH]c3ccccc3c1=O)OC(c1ncccc1F)CC2` (stereo not drawn) [Example 327, 3-(2-(3-fluoropyridin-2-yl)-6-methyl-3,4-dihydro-2H-chromen-7-yl)quinazoline-2,4(1H,3H)-dione]: the “inhibitory rate (%)” value was determined as 107%.

For `Cc1ccc(OCc2ncccc2F)cc1-n1c(=O)[nH]c2cccc(C(F)(F)F)c2c1=O` [Example 370, 3-(5-((3-fluoropyridin-2-yl)methoxy)-2-methylphenyl)-5-(trifluoromethyl)quinazoline-2,4(1H,3H)-dione], the “inhibitory rate (%)” value is recorded as 97%.

In the case of `O=C1Nc2c(-c3ccoc3)ncc(Cl)c2CN1c1cc2c(cc1Cl)CCC(c1ncccc1F)O2` (stereo not drawn) [Example 155, 5-chloro-3-(6-chloro-2-(3-fluoropyridin-2-yl)-3,4-dihydro-2H-chromen-7-yl)-8-(3-furyl)-3,4-dihydropyrido[3,4-d]pyrimidin-2(1H)-one], the “inhibitory rate (%)” value was determined as 101%.

As for `Cc1ccc(OCc2c(F)cccc2F)cc1N1Cc2ccc(-c3noc(=O)[nH]3)cc2NC1=O` [Example 208, 3-(5-((2,6-difluorobenzyl)oxy)-2-methylphenyl)-7-(5-oxo-4,5-dihydro-1,2,4-oxadiazol-3-yl)-3,4-dihydroquinazolin-2(1H)-one], the “inhibitory rate (%)” value turned out to be 96%.

With `Cc1ccc(OCc2c(F)cccc2F)cc1N1Cc2ccc(C(=O)NC(C)(C)C(=O)O)cc2NC1=O` [Example 207, N-((3-(5-((2,6-difluorobenzyl)oxy)-2-methylphenyl)-2-oxo-1,2,3,4-tetrahydroquinazolin-7-yl)carbonyl)-2-methylalanine], the “inhibitory rate (%)” value is reported as 87%.

Take `CC(C)(O)c1ccc2c(c1)NC(=O)N(c1cc(OCc3c(F)cccc3F)ccc1Cc1ccccn1)C2` [Example 316, 3-(5-((2,6-difluorobenzyl)oxy)-2-(pyridin-2-ylmethyl)phenyl)-7-(2-hydroxypropan-2-yl)-3,4-dihydroquinazolin-2(1H)-one]: the “inhibitory rate (%)” value turned out to be 50%.

In the case of `O=C1Nc2cc(-c3nnco3)nc(C3CC3)c2CN1c1cc2c(cc1Cl)CCC(c1ncccc1F)O2` (stereo not drawn) [Example 124, 3-(6-chloro-2-(3-fluoropyridin-2-yl)-3,4-dihydro-2H-chromen-7-yl)-5-cyclopropyl-7-(1,3,4-oxadiazol-2-yl)-3,4-dihydropyrido[4,3-d]pyrimidin-2(1H)-one], the “inhibitory rate (%)” value is reported as 104%.

Turning to `COC1CN(C(=O)c2cc3c(c(C4CC4)n2)CN(c2cc4c(cc2Cl)CCC(c2ncccc2F)O4)C(=O)N3)C1` (stereo not drawn) [Example 146, 3-(6-chloro-2-(3-fluoropyridin-2-yl)-3,4-dihydro-2H-chromen-7-yl)-5-cyclopropyl-7-((3-methoxyazetidin-1-yl)carbonyl)-3,4-dihydropyrido[4,3-d]pyrimidin-2(1H)-one], the “inhibitory rate (%)” value is on record as 97%.

Consider `Cn1cc2c(n1)CN(c1cc(OCc3ncccc3F)ccc1Br)C(=O)N2` [Example 264, 6-(2-bromo-5-((3-fluoropyridin-2-yl)methoxy)phenyl)-2-methyl-2,4,6,7-tetrahydro-5H-pyrazolo[4,3-d]pyrimidin-5-one], for which the “inhibitory rate (%)” value is recorded as 101%.

As to `Cc1ccc(OCc2ncccc2F)cc1N1Cc2ccncc2NC1=O` [Example 259, 3-(5-((3-fluoropyridin-2-yl)methoxy)-2-methylphenyl)-3,4-dihydropyrido[3,4-d]pyrimidin-2(1H)-one], the “inhibitory rate (%)” value was determined as 92%.

In the case of `O=C1Nc2cc(CO)nc(C3CC3)c2CN1c1cc2c(cc1Cl)CCC(c1ncccc1F)O2` (stereo not drawn) [Example 73, 3-(6-chloro-2-(3-fluoropyridin-2-yl)-3,4-dihydro-2H-chromen-7-yl)-5-cyclopropyl-7-(hydroxymethyl)-3,4-dihydropyrido[4,3-d]pyrimidin-2(1H)-one], the “inhibitory rate (%)” value was determined as 109%.

Regarding `O=C1Nc2ccnc(Cl)c2CN1c1ccc2c(c1)OC(c1ncccc1F)CC2` (stereo not drawn) [Example 28, 5-chloro-3-(2-(3-fluoropyridin-2-yl)-3,4-dihydro-2H-chromen-7-yl)-3,4-dihydropyrido[4,3-d]pyrimidin-2(1H)-one], the “inhibitory rate (%)” value is 98%.

Take `Cc1ccc(OCc2ncccc2F)cc1-n1c(=O)[nH]c2cccnc2c1=O` [Example 338, 3-(5-((3-fluoropyridin-2-yl)methoxy)-2-methylphenyl)pyrido[3,2-d]pyrimidine-2,4(1H,3H)-dione]: the “inhibitory rate (%)” value worked out at 90%.

Consider `O=C1Nc2cccc(Cl)c2CN1c1cc(OCc2ncccc2F)c(F)cc1Cl` [Example 287, 5-chloro-3-(2-chloro-4-fluoro-5-((3-fluoropyridin-2-yl)methoxy)phenyl)-3,4-dihydroquinazolin-2(1H)-one], for which the “inhibitory rate (%)” value worked out at 95%.

Turning to `Cc1cc2c(cc1N1Cc3c(cc(N4CCOC4=O)nc3C3CC3)NC1=O)OC(c1ncccc1F)CC2` (stereo not drawn) [Example 138, 5-cyclopropyl-3-(2-(3-fluoropyridin-2-yl)-6-methyl-3,4-dihydro-2H-chromen-7-yl)-7-(2-oxo-1,3-oxazolidin-3-yl)-3,4-dihydropyrido[4,3-d]pyrimidin-2(1H)-one], the “inhibitory rate (%)” value is listed as 109%.

For the compound `COC(=O)c1ccc2c(c1)NC(=O)N(c1cc(OCc3cc(F)ccc3F)ccc1C)C2` [Example 199, methyl 3-(5-((2,5-difluorobenzyl)oxy)-2-methylphenyl)-2-oxo-1,2,3,4-tetrahydroquinazoline-7-carboxylate], the “inhibitory rate (%)” value is given as 60%.

For `Cc1ccc(OCc2ncccc2F)cc1N1Cc2c(Cl)cccc2NC1=O` [Example 242, 5-chloro-3-(5-((3-fluoropyridin-2-yl)methoxy)-2-methylphenyl)-3,4-dihydroquinazolin-2(1H)-one], the “inhibitory rate (%)” value is 102%.

Consider `Cc1ccc(OCc2ncccc2F)cc1N1Cc2ccc(Cl)cc2NC1=O` [Example 244, 7-chloro-3-(5-((3-fluoropyridin-2-yl)methoxy)-2-methylphenyl)-3,4-dihydroquinazolin-2(1H)-one], for which the “inhibitory rate (%)” value was 113%.

As for `COC(=O)c1ccc2c(c1)NC(=O)N(c1cc(OCc3cccc(F)c3F)ccc1C)C2` [Example 198, methyl 3-(5-((2,3-difluorobenzyl)oxy)-2-methylphenyl)-2-oxo-1,2,3,4-tetrahydroquinazoline-7-carboxylate], the “inhibitory rate (%)” value is recorded as 94%.

Take `Cc1cc2c(c(C)n1)CN(c1cc3c(cc1Cl)CCC(c1ncccc1F)O3)C(=O)N2` (stereo not drawn) [Example 63, 3-(6-chloro-2-(3-fluoropyridin-2-yl)-3,4-dihydro-2H-chromen-7-yl)-5,7-dimethyl-3,4-dihydropyrido[4,3-d]pyrimidin-2(1H)-one]: the “inhibitory rate (%)” value turned out to be 106%.

`O=C1Nc2cc(CO)ccc2CN1c1cc(OCc2c(F)cccc2F)ccc1Cc1ccccc1` [Example 255, 3-(2-benzyl-5-((2,6-difluorobenzyl)oxy)phenyl)-7-(hydroxymethyl)-3,4-dihydroquinazolin-2(1H)-one]: the “inhibitory rate (%)” value is 81%.

`Cc1ccc(OCc2ncccc2F)cc1N1Cc2c(ccnc2Cl)NC1=O` [Example 279, 5-chloro-3-(5-((3-fluoropyridin-2-yl)methoxy)-2-methylphenyl)-3,4-dihydropyrido[4,3-d]pyrimidin-2(1H)-one]: the “inhibitory rate (%)” value came to 103%.

Consider `Cc1ccc(OCc2c(F)cc(Cl)cc2F)cc1N1Cc2ccccc2NC1=O` [Example 174, 3-(5-((4-chloro-2,6-difluorobenzyl)oxy)-2-methylphenyl)-3,4-dihydroquinazolin-2(1H)-one], for which the “inhibitory rate (%)” value amounted to 54%.

In the case of `Cc1cc2c(cc1N1Cc3c(cc(-n4cccn4)nc3C3CC3)NC1=O)OC(c1ncccc1F)CC2` (stereo not drawn) [Example 132, 5-cyclopropyl-3-(2-(3-fluoropyridin-2-yl)-6-methyl-3,4-dihydro-2H-chromen-7-yl)-7-(1H-pyrazol-1-yl)-3,4-dihydropyrido[4,3-d]pyrimidin-2(1H)-one], the “inhibitory rate (%)” value is 104%.

With `Cc1ccc(OCc2c(F)cccc2F)cc1N1Cc2cccc(CO)c2NC1=O` [Example 194, 3-(5-((2,6-difluorobenzyl)oxy)-2-methylphenyl)-8-(hydroxymethyl)-3,4-dihydroquinazolin-2(1H)-one], the “inhibitory rate (%)” value is on record as 71%.

As for `COc1cc2c(c(C3CC3)n1)CN(c1cc3c(cc1Cl)CCC(c1ncccc1F)O3)C(=O)N2` (stereo not drawn) [Example 16, 3-(6-chloro-2-(3-fluoropyridin-2-yl)-3,4-dihydro-2H-chromen-7-yl)-5-cyclopropyl-7-methoxy-3,4-dihydropyrido[4,3-d]pyrimidin-2(1H)-one], the “inhibitory rate (%)” value is listed as 102%.

On to `COc1ncc(Cl)c2c1NC(=O)N(c1cc3c(cc1C)CCC(c1ncccc1F)O3)C2` (stereo not drawn) [Example 156, 5-chloro-3-(2-(3-fluoropyridin-2-yl)-6-methyl-3,4-dihydro-2H-chromen-7-yl)-8-methoxy-3,4-dihydropyrido[3,4-d]pyrimidin-2(1H)-one], for which the “inhibitory rate (%)” value was 95%.
